This is an account of results in BindingDB's records for doi:10.1021/jm021084k (2003).

The target in one test is Histamine H1 receptor (Cavia porcellus, UniProt P31389). Kind of test: Potency at histamine H1 receptor subtype, was tested on guinea pig right ileum.
Another test deals with Histamine H3 receptor (Cavia porcellus, UniProt Q9JI35). Briefly: Potency at histamine H3 receptor subtype, was tested on guinea pig right ileum.
Another test has as its target Histamine H2 receptor (Cavia porcellus, UniProt P47747). Briefly: Potency at histamine H2 receptor subtype, was tested on guinea pig right atrium.

Sequence of Histamine H1 receptor (P31389 whole entry): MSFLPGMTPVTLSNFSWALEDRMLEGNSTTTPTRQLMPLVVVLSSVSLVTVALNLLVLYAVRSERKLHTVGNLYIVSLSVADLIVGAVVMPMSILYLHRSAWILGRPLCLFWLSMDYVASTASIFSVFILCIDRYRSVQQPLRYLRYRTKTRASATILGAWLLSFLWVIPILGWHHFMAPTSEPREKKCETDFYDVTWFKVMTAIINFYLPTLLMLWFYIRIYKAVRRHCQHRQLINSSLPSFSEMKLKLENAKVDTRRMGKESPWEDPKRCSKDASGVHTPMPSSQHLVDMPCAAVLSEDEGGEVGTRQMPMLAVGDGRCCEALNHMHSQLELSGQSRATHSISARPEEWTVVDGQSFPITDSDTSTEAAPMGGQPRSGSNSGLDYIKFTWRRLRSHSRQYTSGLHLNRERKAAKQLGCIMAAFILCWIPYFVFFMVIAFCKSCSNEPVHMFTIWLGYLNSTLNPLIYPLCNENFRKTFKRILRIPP
Sequence of Histamine H2 receptor (P47747 whole entry): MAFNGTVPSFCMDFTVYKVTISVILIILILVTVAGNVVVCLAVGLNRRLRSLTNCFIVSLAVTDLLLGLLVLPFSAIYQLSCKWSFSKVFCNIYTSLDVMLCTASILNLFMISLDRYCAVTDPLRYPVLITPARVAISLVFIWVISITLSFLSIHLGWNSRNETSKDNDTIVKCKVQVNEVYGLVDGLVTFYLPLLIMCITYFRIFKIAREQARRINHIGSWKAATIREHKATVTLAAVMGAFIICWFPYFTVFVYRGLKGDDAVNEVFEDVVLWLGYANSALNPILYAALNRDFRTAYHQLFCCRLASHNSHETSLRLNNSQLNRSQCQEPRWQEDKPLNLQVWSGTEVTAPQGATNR
Sequence of Histamine H3 receptor (Q9JI35 whole entry): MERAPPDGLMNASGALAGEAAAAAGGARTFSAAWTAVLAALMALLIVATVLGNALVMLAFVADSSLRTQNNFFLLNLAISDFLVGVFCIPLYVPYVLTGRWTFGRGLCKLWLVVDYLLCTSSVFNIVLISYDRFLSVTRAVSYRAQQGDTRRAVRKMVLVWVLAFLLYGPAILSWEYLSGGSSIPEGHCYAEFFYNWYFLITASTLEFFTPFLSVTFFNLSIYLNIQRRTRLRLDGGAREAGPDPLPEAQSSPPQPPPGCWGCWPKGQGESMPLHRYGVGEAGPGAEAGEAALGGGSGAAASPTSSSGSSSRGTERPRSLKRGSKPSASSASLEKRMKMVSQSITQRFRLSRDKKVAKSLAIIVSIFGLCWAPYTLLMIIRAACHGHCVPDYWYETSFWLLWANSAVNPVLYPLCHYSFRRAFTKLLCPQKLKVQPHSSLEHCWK

Consider `CC(N=O)c1ccc(OCc2ccc(CN3CCCCC3)cc2)cc1` (stereo not drawn) [1-[4-(4-Piperidin-1-ylmethyl-benzyloxy)-phenyl]-ethanone oxime], for which the dissociation constant (Kd) at Histamine H1 receptor came to 7.94 µM; on Histamine H3 receptor it was 0.0851 µM; at Histamine H2 receptor, 14.1 µM.

By Kd is commonly meant a measure of binding affinity in units of concentration. The low end stands for a tighter complex, the high end for a looser complex.
